Data published in patent US7074789B2, “Kinase inhibitors” (Amgen Inc., priority 1999, dated 2006).

Key:
Type in all cases: biochemical
Lck = target: T1, Lck (Homo sapiens, UniProt P06239); experiment: Kinase inhibition assay (33P transfer), Lck; details: read-out: Lck-1
T1 construct: Kinases are expressed as either kinase domains or full length constructs; made in house
Summary of the method: (§1)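 Enzyme activity is taken as the amount of 33PO4 moved from ATP onto poly(Glu, Tyr) 4:1 or poly(Arg, Ser) 3:1 fixed to the plate surface. Unbound label is removed with 0.5% phosphoric acid before scintillation counting.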

Lyn = target: T2, Lyn (Homo sapiens, UniProt P07948); experiment: Kinase inhibition assay (33P transfer), Lyn; details: Table 6, Lyn-1 kinase inhibition class
T2 construct: Kinases are expressed as either kinase domains or full length constructs; made in house
T2 sequence (P07948 whole entry, species assumed, the tested form may be a part): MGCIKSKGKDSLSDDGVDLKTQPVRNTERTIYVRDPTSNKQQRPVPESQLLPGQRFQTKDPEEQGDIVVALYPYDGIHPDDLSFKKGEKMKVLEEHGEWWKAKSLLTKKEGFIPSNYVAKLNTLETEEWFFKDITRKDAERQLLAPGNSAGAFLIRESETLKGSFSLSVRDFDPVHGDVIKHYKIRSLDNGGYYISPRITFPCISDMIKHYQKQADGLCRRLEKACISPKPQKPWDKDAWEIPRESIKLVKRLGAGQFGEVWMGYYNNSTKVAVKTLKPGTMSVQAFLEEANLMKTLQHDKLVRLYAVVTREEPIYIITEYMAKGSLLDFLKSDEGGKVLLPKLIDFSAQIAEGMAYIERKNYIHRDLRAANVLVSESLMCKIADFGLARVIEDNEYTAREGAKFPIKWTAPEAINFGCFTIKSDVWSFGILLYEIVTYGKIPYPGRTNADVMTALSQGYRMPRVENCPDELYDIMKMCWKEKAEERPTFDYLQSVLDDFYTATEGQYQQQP
Summary of the method: (§2)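 Read-out: scintillation counts of 33P moved from ATP onto synthetic peptide polymer coated on the well surface, after washing with 0.5% phosphoric acid. Enzymes were tagged (GST or polyHistidine) and came from bacterial or insect-cell expression. IC50 marks 50% loss of incorporated label.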

Src = target: T3, Src (Homo sapiens, UniProt P12931); experiment: Kinase inhibition assay (33P transfer), Src; details: Table 6, Src-1 kinase inhibition class
T3 construct: Kinases are expressed as either kinase domains or full length constructs; made in house
T3 sequence (P12931 whole entry, species assumed, the tested form may be a part): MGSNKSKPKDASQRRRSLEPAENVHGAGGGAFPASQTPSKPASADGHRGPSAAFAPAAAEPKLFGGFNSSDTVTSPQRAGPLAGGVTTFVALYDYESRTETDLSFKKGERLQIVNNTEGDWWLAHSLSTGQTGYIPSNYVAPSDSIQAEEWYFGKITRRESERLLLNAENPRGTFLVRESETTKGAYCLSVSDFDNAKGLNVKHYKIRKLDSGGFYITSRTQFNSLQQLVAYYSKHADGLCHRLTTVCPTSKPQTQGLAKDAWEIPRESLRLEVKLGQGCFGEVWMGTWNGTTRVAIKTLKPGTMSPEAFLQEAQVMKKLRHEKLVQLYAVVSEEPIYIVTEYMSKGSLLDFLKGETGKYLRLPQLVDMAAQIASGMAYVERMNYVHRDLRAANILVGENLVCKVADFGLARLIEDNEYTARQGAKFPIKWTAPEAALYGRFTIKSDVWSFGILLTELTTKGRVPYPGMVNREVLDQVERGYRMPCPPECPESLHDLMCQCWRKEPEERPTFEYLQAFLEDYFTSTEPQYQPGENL
Summary of the method: as §2

Fyn = target: T4, Fyn (Homo sapiens, UniProt P06241); experiment: Kinase inhibition assay (33P transfer), Fyn; details: read-out: Fyn-1
T4 construct: Kinases are expressed as either kinase domains or full length constructs; made in house
Summary of the method: as §2

Zap-70 = target: T5, Zap-70 (Homo sapiens, UniProt P43403); experiment: Kinase inhibition assay (33P transfer), Zap-70; details: read-out: Zap-1
T5 construct: Kinases are expressed as either kinase domains or full length constructs; made in house
T5 sequence (P43403 1-619): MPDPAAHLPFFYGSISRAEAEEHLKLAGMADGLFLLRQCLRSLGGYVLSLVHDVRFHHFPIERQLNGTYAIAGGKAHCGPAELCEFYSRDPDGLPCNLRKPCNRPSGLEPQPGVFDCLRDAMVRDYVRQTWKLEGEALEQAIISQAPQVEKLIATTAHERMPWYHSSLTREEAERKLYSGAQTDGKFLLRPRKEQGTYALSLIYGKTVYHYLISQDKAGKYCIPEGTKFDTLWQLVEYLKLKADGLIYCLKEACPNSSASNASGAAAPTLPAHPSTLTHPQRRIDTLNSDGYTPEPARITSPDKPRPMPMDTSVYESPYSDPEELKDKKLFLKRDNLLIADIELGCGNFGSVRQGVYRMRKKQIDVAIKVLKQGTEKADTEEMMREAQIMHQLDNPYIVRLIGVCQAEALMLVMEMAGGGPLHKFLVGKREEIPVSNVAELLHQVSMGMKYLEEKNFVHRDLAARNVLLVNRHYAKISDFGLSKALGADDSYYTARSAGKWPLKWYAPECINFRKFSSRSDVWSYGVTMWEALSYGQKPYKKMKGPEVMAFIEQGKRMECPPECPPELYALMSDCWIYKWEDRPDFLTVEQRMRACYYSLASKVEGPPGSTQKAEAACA
Summary of the method: as §1

Itk = target: T6, Itk (Homo sapiens, UniProt Q08881); experiment: Kinase inhibition assay (33P transfer), Itk; details: read-out: Itk-1
T6 construct: Kinases are expressed as either kinase domains or full length constructs; made in house
T6 sequence (Q08881 1-620): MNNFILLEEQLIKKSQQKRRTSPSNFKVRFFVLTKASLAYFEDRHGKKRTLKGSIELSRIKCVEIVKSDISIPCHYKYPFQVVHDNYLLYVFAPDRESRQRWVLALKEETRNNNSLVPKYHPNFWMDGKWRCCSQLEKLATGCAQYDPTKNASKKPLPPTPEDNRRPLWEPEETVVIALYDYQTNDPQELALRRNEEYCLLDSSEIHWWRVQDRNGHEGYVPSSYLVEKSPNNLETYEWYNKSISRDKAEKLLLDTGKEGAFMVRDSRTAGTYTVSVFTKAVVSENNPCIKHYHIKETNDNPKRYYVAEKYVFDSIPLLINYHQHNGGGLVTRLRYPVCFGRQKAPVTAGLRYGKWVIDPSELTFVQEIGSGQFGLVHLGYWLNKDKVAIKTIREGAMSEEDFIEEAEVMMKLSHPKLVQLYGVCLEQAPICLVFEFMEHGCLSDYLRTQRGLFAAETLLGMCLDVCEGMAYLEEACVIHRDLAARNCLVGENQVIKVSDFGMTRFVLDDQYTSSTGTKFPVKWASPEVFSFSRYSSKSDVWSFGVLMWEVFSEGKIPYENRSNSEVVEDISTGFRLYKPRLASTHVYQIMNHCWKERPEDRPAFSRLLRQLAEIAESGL
Summary of the method: as §2

EGFR = target: T7, EGFR (Homo sapiens, UniProt P00533); experiment: Kinase inhibition assay (33P transfer), EGFR; details: Table 2, kinase inhibition class; read-out: EGFR-1
T7 construct: Kinases are expressed as either kinase domains or full length constructs; made in house
Summary of the method: as §2

ErbB2 = target: T8, ErbB2 (Homo sapiens, UniProt P04626); experiment: Kinase inhibition assay (33P transfer), ErbB2; details: read-out: ErbB2-2
T8 construct: Kinases are expressed as either kinase domains or full length constructs; made in house
Summary of the method: as §2

Kdr = target: T9, Kdr (Homo sapiens, UniProt P35968); experiment: Kinase inhibition assay (33P transfer), Kdr; details: read-out: KDR-1
T9 construct: Kinases are expressed as either kinase domains or full length constructs; made in house
Summary of the method: as §1

Flt-1 = target: T10, Flt-1 (Homo sapiens, UniProt P17948); experiment: Kinase inhibition assay (33P transfer), Flt-1
T10 construct: Kinases are expressed as either kinase domains or full length constructs; made in house
Summary of the method: as §2

Tek = target: T11, Tek (Homo sapiens, UniProt Q02763); experiment: Kinase inhibition assay (33P transfer), Tek; details: read-out: Tek-1
T11 construct: Kinases are expressed as either kinase domains or full length constructs; made in house
T11 sequence (Q02763 23-1124, species assumed): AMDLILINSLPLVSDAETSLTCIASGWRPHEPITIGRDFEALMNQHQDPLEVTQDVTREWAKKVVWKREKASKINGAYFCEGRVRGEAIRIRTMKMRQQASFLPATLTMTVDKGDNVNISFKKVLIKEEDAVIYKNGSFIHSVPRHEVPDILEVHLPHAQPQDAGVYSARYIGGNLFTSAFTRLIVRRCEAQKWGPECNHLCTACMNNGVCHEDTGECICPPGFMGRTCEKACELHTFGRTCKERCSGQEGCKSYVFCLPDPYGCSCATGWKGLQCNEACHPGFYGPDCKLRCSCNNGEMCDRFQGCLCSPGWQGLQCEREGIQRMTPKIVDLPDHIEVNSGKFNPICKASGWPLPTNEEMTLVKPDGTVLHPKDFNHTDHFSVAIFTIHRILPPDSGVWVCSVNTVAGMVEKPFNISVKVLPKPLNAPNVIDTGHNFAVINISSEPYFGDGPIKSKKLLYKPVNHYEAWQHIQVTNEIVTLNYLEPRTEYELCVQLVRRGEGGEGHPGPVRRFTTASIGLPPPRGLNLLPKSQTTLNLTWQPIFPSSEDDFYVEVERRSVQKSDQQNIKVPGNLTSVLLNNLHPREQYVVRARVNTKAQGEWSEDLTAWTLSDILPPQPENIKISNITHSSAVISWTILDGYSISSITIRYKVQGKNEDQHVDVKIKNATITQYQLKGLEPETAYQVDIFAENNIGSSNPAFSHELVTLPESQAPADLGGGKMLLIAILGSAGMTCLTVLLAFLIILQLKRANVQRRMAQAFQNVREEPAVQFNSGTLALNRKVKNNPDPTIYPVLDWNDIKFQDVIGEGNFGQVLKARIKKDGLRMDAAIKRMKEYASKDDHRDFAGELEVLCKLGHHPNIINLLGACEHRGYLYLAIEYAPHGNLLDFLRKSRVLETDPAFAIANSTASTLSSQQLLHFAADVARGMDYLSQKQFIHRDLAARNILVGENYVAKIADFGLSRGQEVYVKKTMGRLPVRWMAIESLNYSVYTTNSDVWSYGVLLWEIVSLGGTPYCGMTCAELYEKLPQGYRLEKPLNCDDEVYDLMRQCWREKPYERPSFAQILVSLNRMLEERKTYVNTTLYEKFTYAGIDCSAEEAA
Summary of the method: as §2

c-Met = target: T12, c-Met (Homo sapiens, UniProt P08581); experiment: Kinase inhibition assay (33P transfer), c-Met; details: Table 2, kinase inhibition class; read-out: Met-1
T12 construct: Kinases are expressed as either kinase domains or full length constructs; made in house
T12 sequence (P08581 25-1390): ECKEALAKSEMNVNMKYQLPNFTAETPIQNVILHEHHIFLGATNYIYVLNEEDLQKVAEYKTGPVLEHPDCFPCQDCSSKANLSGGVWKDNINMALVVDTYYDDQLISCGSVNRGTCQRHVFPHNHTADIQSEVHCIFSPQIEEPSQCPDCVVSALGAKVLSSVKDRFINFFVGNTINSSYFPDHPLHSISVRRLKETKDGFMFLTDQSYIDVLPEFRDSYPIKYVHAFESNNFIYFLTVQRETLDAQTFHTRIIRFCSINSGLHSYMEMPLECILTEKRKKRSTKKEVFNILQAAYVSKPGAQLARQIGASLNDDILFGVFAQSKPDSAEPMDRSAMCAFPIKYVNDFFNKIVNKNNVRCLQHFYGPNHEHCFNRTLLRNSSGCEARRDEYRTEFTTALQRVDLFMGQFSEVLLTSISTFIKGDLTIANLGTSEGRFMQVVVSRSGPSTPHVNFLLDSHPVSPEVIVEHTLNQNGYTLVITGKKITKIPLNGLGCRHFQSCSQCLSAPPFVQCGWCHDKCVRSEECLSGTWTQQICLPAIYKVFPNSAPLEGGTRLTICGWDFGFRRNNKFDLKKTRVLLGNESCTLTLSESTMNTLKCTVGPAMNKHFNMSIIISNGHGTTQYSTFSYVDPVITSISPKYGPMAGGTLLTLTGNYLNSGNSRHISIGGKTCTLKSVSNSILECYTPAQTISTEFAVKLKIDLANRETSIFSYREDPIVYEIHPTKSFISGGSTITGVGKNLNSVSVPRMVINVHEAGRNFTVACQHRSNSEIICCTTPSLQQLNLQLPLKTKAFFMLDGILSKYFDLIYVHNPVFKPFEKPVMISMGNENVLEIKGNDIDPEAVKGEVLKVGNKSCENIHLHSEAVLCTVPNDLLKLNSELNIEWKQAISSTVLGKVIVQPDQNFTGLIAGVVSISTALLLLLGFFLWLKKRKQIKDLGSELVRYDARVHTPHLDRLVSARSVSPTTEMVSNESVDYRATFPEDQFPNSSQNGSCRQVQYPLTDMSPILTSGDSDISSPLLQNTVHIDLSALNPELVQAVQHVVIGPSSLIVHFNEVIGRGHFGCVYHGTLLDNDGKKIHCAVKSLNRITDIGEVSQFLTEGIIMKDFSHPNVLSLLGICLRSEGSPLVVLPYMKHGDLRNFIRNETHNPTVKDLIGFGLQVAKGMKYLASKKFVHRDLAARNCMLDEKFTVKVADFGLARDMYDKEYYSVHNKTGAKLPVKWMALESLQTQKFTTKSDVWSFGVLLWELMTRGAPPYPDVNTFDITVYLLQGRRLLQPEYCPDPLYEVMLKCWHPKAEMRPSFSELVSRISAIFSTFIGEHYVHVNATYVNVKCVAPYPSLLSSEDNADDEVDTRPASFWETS
Summary of the method: as §2

AKT = target: T13, AKT (Homo sapiens, UniProt Q9Y243); experiment: Kinase inhibition assay (33P transfer), AKT; details: Table 2, kinase inhibition class; read-out: AKT3-1
T13 construct: Kinases are expressed as either kinase domains or full length constructs; made in house
T13 sequence (Q9Y243 whole entry, the tested form may be a part): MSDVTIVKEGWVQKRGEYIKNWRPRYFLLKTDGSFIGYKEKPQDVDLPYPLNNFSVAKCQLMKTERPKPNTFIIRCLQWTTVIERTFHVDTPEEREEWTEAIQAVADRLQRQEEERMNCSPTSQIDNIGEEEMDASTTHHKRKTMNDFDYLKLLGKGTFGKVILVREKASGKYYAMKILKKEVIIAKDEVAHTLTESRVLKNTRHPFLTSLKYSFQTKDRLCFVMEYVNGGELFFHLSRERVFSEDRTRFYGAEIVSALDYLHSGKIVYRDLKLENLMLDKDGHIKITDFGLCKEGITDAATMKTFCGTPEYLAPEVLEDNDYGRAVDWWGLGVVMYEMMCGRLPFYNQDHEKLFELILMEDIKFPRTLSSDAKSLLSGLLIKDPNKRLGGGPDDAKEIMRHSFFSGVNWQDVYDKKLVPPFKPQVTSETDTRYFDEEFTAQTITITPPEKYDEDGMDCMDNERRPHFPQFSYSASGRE
Summary of the method: as §1

IGFR-1 = target: T14, IGFR-1 (Homo sapiens, UniProt P08069); experiment: Kinase inhibition assay, IGFR-1 (Table 2); details: Table 2, kinase inhibition class
T14 construct: Kinases are expressed as either kinase domains or full length constructs; made in house

PDGFRB = target: T15, PDGFRB (Homo sapiens, UniProt P09619); experiment: Kinase inhibition assay (33P transfer), PDGFRB; details: read-out: PDGFRB-1
T15 construct: Kinases are expressed as either kinase domains or full length constructs; made in house

Hck-1 = target: T16, Hck-1 (Homo sapiens, UniProt P08631); experiment: Kinase inhibition assay (33P transfer), Hck; details: Table 6, Hck-1 kinase inhibition class
T16 construct: Kinases are expressed as either kinase domains or full length constructs; made in house

ErbB4 = target: T17, ErbB4 (Homo sapiens, UniProt Q15303); experiment: Kinase inhibition assay (33P transfer), ErbB4; details: read-out: ErbB4-1
T17 construct: Kinases are expressed as either kinase domains or full length constructs; made in house

Ret-1 = target: T18, Ret-1 (Homo sapiens, UniProt P07949); experiment: Kinase inhibition assay (33P transfer), Ret; details: Table 6, Ret-1 kinase inhibition class
T18 construct: Kinases are expressed as either kinase domains or full length constructs; made in house

FGFR1 = target: T19, FGFR1 (Homo sapiens, UniProt P11362); experiment: Kinase inhibition assay (33P transfer), FGFR1; details: read-out: FGFR1-1
T19 construct: Kinases are expressed as either kinase domains or full length constructs; made in house
T19 sequence (P11362 22-822, species assumed): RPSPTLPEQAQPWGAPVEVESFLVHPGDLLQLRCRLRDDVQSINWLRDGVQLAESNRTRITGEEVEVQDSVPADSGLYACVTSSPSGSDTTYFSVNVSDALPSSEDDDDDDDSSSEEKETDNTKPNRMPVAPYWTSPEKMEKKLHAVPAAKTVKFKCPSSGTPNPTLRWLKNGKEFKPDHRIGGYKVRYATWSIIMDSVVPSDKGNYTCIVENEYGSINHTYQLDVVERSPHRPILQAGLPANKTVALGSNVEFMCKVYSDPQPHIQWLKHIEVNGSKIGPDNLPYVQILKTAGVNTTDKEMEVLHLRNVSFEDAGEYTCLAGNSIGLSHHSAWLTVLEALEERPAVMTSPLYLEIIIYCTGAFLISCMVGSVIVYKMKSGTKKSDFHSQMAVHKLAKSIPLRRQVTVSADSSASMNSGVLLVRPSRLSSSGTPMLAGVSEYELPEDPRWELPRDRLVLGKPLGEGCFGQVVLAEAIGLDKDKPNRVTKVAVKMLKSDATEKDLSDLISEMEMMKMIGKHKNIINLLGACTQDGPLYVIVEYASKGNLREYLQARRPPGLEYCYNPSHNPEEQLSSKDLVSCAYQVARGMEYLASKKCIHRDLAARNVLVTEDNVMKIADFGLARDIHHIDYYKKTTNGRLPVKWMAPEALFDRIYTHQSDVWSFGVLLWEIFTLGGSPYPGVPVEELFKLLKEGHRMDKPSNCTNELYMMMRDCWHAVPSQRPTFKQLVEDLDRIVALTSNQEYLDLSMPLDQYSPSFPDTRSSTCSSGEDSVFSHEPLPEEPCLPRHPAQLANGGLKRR

SMILES	IC50 (Lck) [µM]	IC50 (Lyn) [µM]	IC50 (Src) [µM]	IC50 (Fyn) [µM]	IC50 (Zap-70) [µM]	IC50 (Itk) [µM]	IC50 (EGFR) [µM]	IC50 (ErbB2) [µM]	IC50 (Kdr) [µM]	IC50 (Flt-1) [µM]	IC50 (Tek) [µM]	IC50 (c-Met) [µM]	IC50 (AKT) [µM]	IC50 (IGFR-1) [µM]	IC50 (PDGFRB) [µM]	IC50 (Hck-1) [µM]	IC50 (ErbB4) [µM]	IC50 (Ret-1) [µM]	IC50 (FGFR1) [µM]
COc1cc(Nc2ncnc(-n3c(NCc4cccs4)nc4ccccc43)n2)cc(OC)c1OC [Compound 950]	< 0.817	< 0.817	0.817 to 4.9	0.817 to 4.9	> 9.19	> 9.19	0.817 to 4.9	0.817 to 4.9	< 0.817	< 0.817	4.9 to 7.15	> 9.19	> 9.19	> 9.19	< 0.817	> 9.19	0.817 to 4.9	< 0.817	< 0.817
COc1cc(Nc2ncnc(N3c4ccccc4CCC3C)n2)cc(OC)c1OC (centres unmarked) [Compound 612]	< 0.982	0.982 to 5.89	0.982 to 5.89	0.982 to 5.89	8.59 to 11	0.982 to 5.89	0.982 to 5.89	0.982 to 5.89	< 0.982	< 0.982	0.982 to 5.89	< 0.982	> 11	5.89 to 8.59	0.982 to 5.89	8.59 to 11	0.982 to 5.89	0.982 to 5.89	< 0.982
COc1ccc(CNc2nc3ccccc3n2-c2ncnc(Nc3cc(OC)c(OC)c(OC)c3)n2)cc1 [Compound 1037]	> 8.76	> 8.76	> 8.76	> 8.76	> 8.76	> 8.76	> 8.76	> 8.76	< 0.779	4.67 to 6.82	> 8.76	> 8.76	> 8.76	> 8.76	> 8.76	> 8.76	> 8.76	0.779 to 4.67	0.779 to 4.67
COc1cc(Nc2ncnc(-n3c(NCc4cccc(F)c4)nc4ccccc43)n2)cc(OC)c1OC [Compound 513]	0.798 to 4.79	0.798 to 4.79	6.98 to 8.97	6.98 to 8.97	> 8.97	> 8.97	6.98 to 8.97	6.98 to 8.97	< 0.798	< 0.798	> 8.97	> 8.97	> 8.97	6.98 to 8.97	< 0.798	> 8.97	4.79 to 6.98	< 0.798	< 0.798
Nc1nc2ccccc2n1-c1ncnc(Nc2ccc(N3CCOCC3)cc2)n1 [Compound 479]	1.03 to 6.18	9.01 to 11.6	> 11.6	> 11.6	> 11.6	6.18 to 9.01	9.01 to 11.6	6.18 to 9.01	1.03 to 6.18	1.03 to 6.18	> 11.6	6.18 to 9.01	> 11.6	< 1.03	6.18 to 9.01	> 11.6	9.01 to 11.6	1.03 to 6.18	1.03 to 6.18
CC(C)Nc1ncccc1-c1ncnc(Nc2ccc(C(N)=O)cc2)n1 [Compound 1084]	< 1.14	< 1.14	> 12.9	> 12.9	> 12.9	6.87 to 10	> 12.9	> 12.9	1.14 to 6.87	> 12.9	> 12.9	6.87 to 10	> 12.9	> 12.9	1.14 to 6.87	> 12.9	> 12.9	< 1.14	> 12.9
COc1cc(Nc2ncnc(N3CCCc4ccc(C(F)(F)F)cc43)n2)cc(OC)c1OC [Compound 518]	> 9.75	0.867 to 5.2	> 9.75	5.2 to 7.58	> 9.75	> 9.75	< 0.867	0.867 to 5.2	7.58 to 9.75	> 9.75	7.58 to 9.75	> 9.75	> 9.75	> 9.75	> 9.75	> 9.75	> 9.75	7.58 to 9.75	> 9.75
COc1cc(Nc2ncnc(-n3c(N[C@@H](C)c4ccccc4)nc4ccccc43)n2)cc(OC)c1OC [Compound 1033]	< 0.804	< 0.804	0.804 to 4.82	< 0.804	> 9.04	> 9.04	4.82 to 7.03	7.03 to 9.04	< 0.804	< 0.804	> 9.04	> 9.04	> 9.04	> 9.04	< 0.804	> 9.04	0.804 to 4.82	< 0.804	< 0.804
COc1cc(Nc2ncnc(-n3c(NC(CCO)c4ccccc4)nc4ccccc43)n2)cc(OC)c1OC (centres unmarked) [Compound 591]	< 0.758	0.758 to 4.55	< 0.758	< 0.758	> 8.53	> 8.53	> 8.53	4.55 to 6.63	< 0.758	< 0.758		> 8.53	> 8.53	> 8.53	< 0.758	0.758 to 4.55	6.63 to 8.53	< 0.758	< 0.758
COc1cc(Nc2ncnc(N(C)c3cccc(Cl)c3)n2)cc(OC)c1OC [Compound 603]	< 0.995	0.995 to 5.97	0.995 to 5.97	0.995 to 5.97	> 11.2	> 11.2	< 0.995	< 0.995	< 0.995	0.995 to 5.97		0.995 to 5.97	> 11.2	0.995 to 5.97	0.995 to 5.97	8.71 to 11.2	8.71 to 11.2	< 0.995	0.995 to 5.97
